Experimental data reported in patent US10709667B2, “Hydrogel encapsulated cells and anti-inflammatory drugs” (Massachusetts Institute of Technology, priority 2011, dated 2020).

Columns and labels:
[1] = system: islet cells in retrieved capsules; test: Insulin secretion from retrieved capsules; assay type: in vivo; details: 24 hours, FIG. 10
Procedure: Sixty days after transplantation of islet-containing capsules, the mice from example 6 were sacrificed by CO2 asphyxiation. A lapratomy was performed to expose the abdominal cavity and capsules were retrieved by an abdominal lavage with HEPES buffer. The abdominal cavity was examined closely to identify remaining capsules, which if found were gently removed using atraumatic tweezers. The retrieved capsules were subsequently washed several times in HEPES buffer and imaged at 2× magnification using an EVOS brightfield microscope (AMG). Finally, capsules were transferred into a 1.5 ml Eppendorf tube, and frozen at −20° C. for future analysis. Insulin secretion was measured from the retrieved capsules for 24 hours.

[2] = system: C57/B6 mice with streptozotocin (STZ)-induced diabetes; test: Transplantation of encapsulated rat islets into STZ-induced diabetic mice, daily blood glucose monitoring; assay type: in vivo; details: daily blood glucose over 2 months, marginal mass of islets, intraperitoneal, n=6-7
Procedure: Alginate with high gluronic acid content SLG20 (Novamatrix, FMC Polymer, Drammen, Norway) was dissolved in sterile 0.9% (w/v) NaCl to give an alginate solution of 1.5% (w/v). To prepare hybrid drug-islet capsule, 1.5% (w/v) alginate was mixed with curcumin (Sigma Aldrich) at 0.3-1.0 mg/ml or with dexamethasone (Sigma Aldrich) at 1-2 mg/ml and stirred for 3-4 days to ensure that the drug is homogenously dispersed. During this mixing period, curcumin-alginate mixture was wrapped in aluminium foil to avoid light exposure which might oxidize this drug. One day after islet isolation, islets were washed twice with Ca-free Krebs and mixed with the alginate suspension with or without dispersed drug at a pre-cross-linking islet density of approximately 750-1000 islets/ml. […]
Male Sprague—Dawley rats, 200-250 g, also obtained from Charles River Laboratories, were used as islet donors. […] The mice were observed daily till after the final STZ injection when they are weighed and their blood glucose levels determined. Mice were confirmed diabetic if their non-fasted blood glucose level rose above 300 mg/dL for two consecutive daily readings. […]
Xenogeneic transplants of encapsulated rat islets to diabetic mice recipients were performed to examine the reversibility of diabetes. […] Shortly thereafter, islet-containing capsules were sampled in quadruplicate, the total islets number was counted. […]

RAW 264.7 macrophages = test: Co-culture of macrophages and encapsulated islets: macrophage proliferation; assay type: cell-based; details: hybrid alginate capsules with 2 mg/ml dexamethasone or 1 mg/ml curcumin, 4 days co-culture
Procedure: (§1) RAW 264.7 macrophages were cultured in RPMI-1640 medium supplemented with 10% FBS, 100 units/ml penicillin and 100 μg/ml streptomycin (Invitrogen). The cells were sub-cultured every 2-3 days. 0.2 million macrophages in 3 ml of fresh culture medium were seeded into each well of a six-well tissue-culture treated polystyrene plate and allowed to adhere to the plate surface over night. The culture medium was removed and encapsulated islets were added in 3 ml of fresh medium to each well with adherent macrophages. Co-culturing of encapsulated islets with macrophages was maintained for four days. Afterwards, supernatant samples were collected and frozen at −20° C. for future insulin analysis with an insulin ELISA kit (ALPCO diagnostics). Encapsulated islets were collected into new plates. Both encapsulated islets and remaining adherent macrophages were washed in HEPES buffer and subjected to live-dead fluorescent staining (Invitrogen) for viability assessment.
(§2) An in vitro experiment was designed to test whether the presence of immune cells affects insulin secretion by islets. Hybrid alginate capsules containing islet cells and 2 mg/ml of dexamethasone or 1 mg/ml of curcumin were fabricated. Islet cells were encapsulated alone as a positive control. As a negative control, encapsulated islets were co-cultured with a macrophage cell line adherent to the plate's bottom. […]

fibrosis on capsules = test: Fibrosis formation on capsules retrieved 60 days after transplantation (observation, DNA fluorescent staining); assay type: in vivo, mice; details: FIG. 9
Procedure: Sixty days after transplantation of islet-containing capsules, the mice from example 6 were sacrificed by CO2 asphyxiation. A lapratomy was performed to expose the abdominal cavity and capsules were retrieved by an abdominal lavage with HEPES buffer. The abdominal cavity was examined closely to identify remaining capsules, which if found were gently removed using atraumatic tweezers. The retrieved capsules were subsequently washed several times in HEPES buffer and imaged at 2× magnification using an EVOS brightfield microscope (AMG). Finally, capsules were transferred into a 1.5 ml Eppendorf tube, and frozen at −20° C. for future analysis.
50 μl of retrieved capsules (120-150 alginate capsules) were transferred to each well of a 24-well Millicell® cell culture insert (Millipore) using wide-orifice pipette tips (Fisher Scientific, Pittsburgh, Pa., USA). The capsules were incubated at 37° C. for 45 min in 800 μl of 0.001 mg/ml Hoersch 33342 dye (Invitrogen) prepared from stock solution by dilution with HEPES buffer. Afterwards, these capsules were washed four times with HEPES buffer. […] Finally, fluorescent signals from the stained capsules were obtained using a Tecan UV-VIS absorbance plate reader at with the excitation and emission wavelengths of 350 nm and 460 nm respectively.
A rigorous quantification technique was developed to assess fibrosis on capsules via DNA fluorescent staining. […]

encapsulated islets = assay type: cell-based; details: hybrid alginate capsules with 2 mg/ml dexamethasone or 1 mg/ml curcumin, 4 days co-culture, FIG. 5
Procedure: as §1, §2

For `COc1cc(/C=C/C(=O)CC(=O)/C=C/c2ccc(O)c(OC)c2)ccc1O` [curcumin], which “insulin secretion from retrieved capsules” value [1] is on record?
Its value is “greatly improved insulin secretion”.

What about the glycemic control [2] of the same compound?
Its glycemic control is “improved glycemic control”.

And the macrophages proliferation (RAW 264.7 macrophages)?
Its macrophages proliferation is “hindered macrophages proliferation”.

What about the “fibrosis by DNA fluorescence of retrieved capsules” value (fibrosis on capsules) of the same compound?
Its value is “reduced fibrosis with statistical significance”.

And the “insulin secretion from encapsulated islets co-cultured with macrophages” value (encapsulated islets)?
Its value is “restored insulin secretion”.
